Data on eleven compounds can be found in US9242966B2, “Phthalazines as potassium ion channel inhibitors” (BRISTOL-MYERS SQUIBB COMPANY, priority 2013, dated 2016).

The structures appear in SMILES notation.

T1 sequence (P22460 whole entry): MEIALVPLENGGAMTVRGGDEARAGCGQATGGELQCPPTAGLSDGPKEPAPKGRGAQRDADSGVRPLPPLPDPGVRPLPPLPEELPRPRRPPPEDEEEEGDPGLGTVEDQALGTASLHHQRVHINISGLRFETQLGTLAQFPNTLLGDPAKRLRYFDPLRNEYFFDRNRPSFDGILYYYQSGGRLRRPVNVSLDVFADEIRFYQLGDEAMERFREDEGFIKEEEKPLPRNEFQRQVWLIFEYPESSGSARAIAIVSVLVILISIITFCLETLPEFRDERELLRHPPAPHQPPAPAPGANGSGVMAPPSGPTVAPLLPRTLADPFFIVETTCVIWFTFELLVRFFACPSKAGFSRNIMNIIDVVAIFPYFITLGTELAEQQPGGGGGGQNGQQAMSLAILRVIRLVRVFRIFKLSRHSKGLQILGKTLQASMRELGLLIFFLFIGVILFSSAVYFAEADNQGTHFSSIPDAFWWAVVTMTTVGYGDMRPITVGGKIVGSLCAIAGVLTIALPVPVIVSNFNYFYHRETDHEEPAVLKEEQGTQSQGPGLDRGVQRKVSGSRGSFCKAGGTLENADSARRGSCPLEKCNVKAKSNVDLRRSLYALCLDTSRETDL

One data set concerns the target T1, human KV 1.5 (Homo sapiens, UniProt P22460).
T1 construct: expressed in transfected cells; host or cells: mammalian L-929 cells (mouse fibroblast line)
Kind of data set: Block of IKur current in patch clamped L-929 cells expressing human Kv1.5. The format is cell-based. To be noted: L929, 0.3 μM; patch clamped mammalian L-929 cells stably expressing human Kv1.5 (IKur); read-out: KV1_5% Inh L929 @0.3 μM. An excerpt:
1. Synders, D. J.; et al., “A rapidly activating and slowly inactivating potassium channel cloned from human heart: functional analysis after stable mammalian cell culture expression”, J. Gen. Physiol., 101:513-543 (1993). […]
In the case of `CC(Nc1nnc(-c2cncc(S(N)(=O)=O)c2)c2cccc(-c3ccccc3)c12)c1ccccn1` (stereo not drawn) [Example 33, 5-(5-Phenyl-4-((1-(pyridin-2-yl)ethyl)amino)phthalazin-1-yl)pyridine-3-sulfonamide], the inhibition at 0.3 µM was 71.1%.
Turning to `O=C(N[C@H]1CCC[C@@H]1OCc1ccccc1)c1cncc(-c2nnc(NCc3ccccn3)c3c(-c4ccccc4)cccc23)c1` [Example 49], the inhibition at 0.3 µM is 93.9%.
In the case of `NS(=O)(=O)c1cncc(-c2nnc(NCc3cccc(OC(F)(F)F)c3)c3c(-c4ccccc4)cccc23)c1` [Example 40, 5-(5-Phenyl-4-((3-(trifluoromethoxy)benzyl)amino)phthalazin-1-yl)pyridine-3-sulfonamide], the inhibition at 0.3 µM came out at 90.2%.
Take `NS(=O)(=O)c1cncc(-c2nnc(NCc3ncccn3)c3c(-c4ccccc4)cccc23)c1` [Example 29, 5-(5-Phenyl-4-((pyrimidin-2-ylmethyl)amino)phthalazin-1-yl)pyridine-3-sulfonamide]: the inhibition at 0.3 µM worked out at 68.1%.
On the same count and under the same terms, the same measure for `NS(=O)(=O)c1cncc(-c2nnc(NCc3cccc(C(F)(F)F)c3)c3c(-c4ccccc4)cccc23)c1` [Example 38, 5-(5-Phenyl-4-((3-(trifluoromethyl)benzyl)amino)phthalazin-1-yl) pyridine-3-sulfonamide]: 94.9%.
On the same count and under the same terms, to `C[C@H](Nc1nnc(-c2cncc(S(N)(=O)=O)c2)c2cccc(-c3ccccc3)c12)c1ccccc1` [Example 43, (S)-5-(5-Phenyl-4-((1-phenylethyl)amino)phthalazin-1-yl)pyridine-3-sulfonamide] belongs 86.8%.
The same measure, in the same setting: the same measure for `O=C(Nc1cncc(-c2nnc(NCc3ccccc3)c3c(-c4ccccc4)cccc23)c1)OCC(F)(F)F` [Example 27, 2,2,2-Trifluoroethyl (5-(4-(benzylamino)-5-phenylphthalazin-1-yl)pyridin-3-yl)carbamate]: 78%.
For `NS(=O)(=O)c1cncc(-c2nnc(NCc3ccccc3F)c3c(-c4ccccc4)cccc23)c1` [Example 31, 5-(4-((2-Fluorobenzyl)amino)-5-phenylphthalazin-1-yl)pyridine-3-sulfonamide], the inhibition at 0.3 µM stood at 87.4%.
Turning to `NS(=O)(=O)c1cncc(-c2nnc(NC[C@H](O)c3ccccc3)c3c(-c4ccccc4)cccc23)c1` [Example 41, (R)-5-(4-((2-Hydroxy-2-phenylethyl)amino)-5-phenylphthalazin-1-yl)pyridine-3-sulfonamide], the inhibition at 0.3 µM came to 93.5%.
Consider `CC(=O)Nc1cncc(-c2nnc(NCc3ccccn3)c3c(-c4ccccc4)cccc23)c1` [Example 11, N-(5-(5-Phenyl-4-(pyridin-2-ylmethylamino)phthalazin-1-yl)pyridin-3-yl)acetamide], for which the inhibition at 0.3 µM stood at 78.8%.

Tested on in a further data set: not listed separately
Kind of data set: In vivo rat PK evaluation of pro-drug cleavage to parent. To be noted: all doses administered PO, parent = Example 1. An excerpt: (§1) Example 16 is a prodrug of Example 1.
As for `O=P(O)(O)NS(=O)(=O)c1cncc(-c2nnc(NCc3ccccn3)c3c(-c4ccccc4)cccc23)c1` [Example 16, 5-(5-Phenyl-4-(pyridin-2-ylmethylamino)phthalazin-1-yl)pyridin-3-ylsulfonylphosphoramidic acid], the “Pro-drug cleavage to the respective parent compound” value is listed as “Pro-drug cleavage to the respective parent compound was demonstrated”.

Tested on in the next data set: not listed separately
As to the kind of experiment: Rat PO PK with pH modulators (Pentagastrin or Famotidine pre-treatment). The format is in vivo.
Conditions: not given
Excerpt: as §1
For the compound `O=P(O)(O)NS(=O)(=O)c1cncc(-c2nnc(NCc3ccccn3)c3c(-c4ccccc4)cccc23)c1` [Example 16, 5-(5-Phenyl-4-(pyridin-2-ylmethylamino)phthalazin-1-yl)pyridin-3-ylsulfonylphosphoramidic acid], the “Effect of pH modulators on PO PK (pH dependent absorption)” value is listed as “mitigated the pH dependent absorption”.
